These results are taken from US5418135A, “Method of inhibiting binding of PDGF to a PDGF receptor by biosynthetic PDGF antagonists” (Creative BioMolecules, Inc., priority 1993, dated 1995).

This experiment has as its system PDGF receptor on human foreskin fibroblasts / NIH/3T3 cells. The experiment in a line: Inhibition assay: 3H-thymidine incorporation in cells stimulated with PDGF dimer. It counts as cell-based.

Experimental: One method includes the determination of ^3 H-thymidine incorporation in a cell which normally is induced to proliferate in the presence of PDGF, but which simultaneously is exposed to the prospective antagonist and to biologically active PDGF.
Human foreskin fibroblasts are grown from explants of newborn foreskin. NIH/3T3 cells were obtained from S. Aaronson (NCI). Cells are cultured in Dulbecco's modified Eagle's medium (DMEM) supplemented with 10% fetal bovine serum at 37° C. in an atmosphere of 10% CO2 and 90% air.
Cells are grown in 48-well plates to confluence and used for assay 3-4 days later. Different monomeric forms or fragments of PDGF monomers are added to the media, and after 18 hours 10 .xi.g PDGF AA dimer, AB dimer, or BB dimer and 2 .xi.Ci/ml ^3 H-thymidine are added. The cells are incubated an additional 2 hours and washed at 4° C. three times with phosphate-buffered saline (PBS) and five times with 5% trichloroacetic acid (TCA). TCA-insoluble materials are solubilized in 0.1N NaOH/0.1% SDS. The amount of incorporated ^3 H-thymidine is determined with a Beckman liquid scintillation counter.

Consider “A: Intact recombinant PDGF A chain monomer from E. coli, Cys residues pyridylethylated to prevent dimerization”, for which the “inhibition of the proliferative effect of BB dimer (in words)” value (PDGF BB dimer as stimulus) is given as “inhibit the proliferative effect of BB dimer”. Also, the IC50 (inhibition of PDGF dimer-induced 3H-thymidine incorporation, antagonist added 18 hours before PDGF dimer and 3H-thymidine, read-out: HALF-MAX INHIBITION) is 100 nM.
